Consider 1 compound from ChEMBL document CHEMBL1159021, “Antitumor agents, 127. Bruceoside C, a new cytotoxic quassinoid glucoside, and related compounds from Brucea javanica” (1992).

Holding throughout (format): functional
Details in all cases: read-out: ED50 (the source's name)

In one assay the test system is KB. Kind of assay: Cytotoxicity against human KB cells.
A further assay relates to A549. Kind of assay: Cytotoxicity against human A549 cells.
The subject of the next assay is HCT-8. Kind of assay: Cytotoxicity against human HCT8 cells.
The next assay concerns TE-671. Kind of assay: Cytotoxicity against human TE671 cells.
Another assay deals with P388. Briefly: Cytotoxicity against mouse P388 cells.
A short description of assay [1]: Cytotoxicity against human RPMI cells.

Converted amounts (≈) assume the structure as drawn.

In the case of `COC(=O)[C@@]12OC[C@]34[C@H](OC(=O)C[C@@H]13)[C@H](OC(=O)C=C(C)C)[C@H]1C(C)=C(O[C@@H]3O[C@H](CO)[C@@H](O)[C@H](O)[C@H]3O)C(=O)C[C@]1(C)[C@H]4[C@@H](O)[C@@H]2O` [BRUCEOSIDE C], the EC50 in the assay on KB was under 0.1 µg/mL; in the assay on A549 it was 0.44 µg/mL (≈ 0.645 µM); with HCT-8 it was 4.51 µg/mL (≈ 6.61 µM); in the assay with TE-671, 0.29 µg/mL (≈ 0.425 µM); in the assay on P388 it was 5.11 µg/mL (≈ 7.49 µM); in assay [1] it was under 0.1 µg/mL.
